Experimental data from patent US11873298B2, “Compounds and uses thereof” (JANSSEN PHARMACEUTICA NV, priority 2017, dated 2024).

How the values were obtained:
SCD1 = target: T1, SCD1 (Homo sapiens, UniProt O00767); experiment: Growth inhibition of humanized yeast strain expressing SCD1 as sole desaturase; format: cell-based
T1 construct: host or cells: S. cerevisiae ole1Δ strain (W303 pdr1Δ pdr3Δ background), plasmid pRS316 with TDH3 promoter and CYC1 terminator
T1 sequence (O00767 1-359): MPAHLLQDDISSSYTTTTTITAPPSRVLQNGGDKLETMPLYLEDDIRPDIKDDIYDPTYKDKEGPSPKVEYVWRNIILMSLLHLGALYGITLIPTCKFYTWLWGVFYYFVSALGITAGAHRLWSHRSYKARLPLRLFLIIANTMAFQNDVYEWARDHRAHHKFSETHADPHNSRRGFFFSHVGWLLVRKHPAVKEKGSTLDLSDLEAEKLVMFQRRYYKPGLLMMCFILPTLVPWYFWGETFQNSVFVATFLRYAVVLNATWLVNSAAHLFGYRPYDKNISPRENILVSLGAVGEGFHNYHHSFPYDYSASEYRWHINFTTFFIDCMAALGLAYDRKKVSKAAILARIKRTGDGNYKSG
In short: (§1)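 Plasmid-complemented ole1Δ yeast, drug-pump deleted (pdr1Δ pdr3Δ), depend solely on the introduced Ole1, SCD1 or SCD5 desaturase. Compounds are added from DMSO to cells in uracil-free galactose medium, 2× density 0.02, and OD600 is read after 24 h or 40 h respectively.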

SCD5 = target: T2, SCD5 (Homo sapiens, UniProt Q86SK9); experiment: Growth inhibition of humanized yeast strain expressing SCD5 as sole desaturase; format: cell-based
T2 construct: host or cells: S. cerevisiae ole1Δ strain (W303 pdr1Δ pdr3Δ background), plasmid pRS316 with TDH3 promoter and CYC1 terminator
T2 sequence (Q86SK9 1-330): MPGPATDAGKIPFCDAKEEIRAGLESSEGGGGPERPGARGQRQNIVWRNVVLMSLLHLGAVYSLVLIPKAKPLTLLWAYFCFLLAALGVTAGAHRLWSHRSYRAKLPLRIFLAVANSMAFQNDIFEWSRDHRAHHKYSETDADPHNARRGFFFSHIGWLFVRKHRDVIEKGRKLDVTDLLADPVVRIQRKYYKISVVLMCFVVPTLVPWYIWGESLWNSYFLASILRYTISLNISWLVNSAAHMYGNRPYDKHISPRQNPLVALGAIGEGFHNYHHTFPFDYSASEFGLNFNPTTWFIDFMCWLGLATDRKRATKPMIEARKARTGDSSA
In short: as §1

[1] = humanized yeast strain expressing SCD1
[2] = humanized yeast strain expressing SCD5
[3] = growth inhibition of humanized yeast strain expressing human SCD1
[4] = growth inhibition of humanized yeast strain expressing human SCD5

| Compound | IC50 (SCD1; humanized yeast strain, 40 h) | IC50 (SCD5; humanized yeast strain, 40 h) | other results |
| --- | --- | --- | --- |
| CC(C)n1ncc2ccc(-c3nc(N4CCN(C(=O)c5ccccc5Cl)CC4)no3)cc21 [Compound 580] |  |  | IC50 (SCD1; [1]): 14.1 µM; IC50 (SCD5; [2]): 0.022 µM |
| CC1(C(=O)N2CCC(c3noc(-c4ccnc(C5CCOC5)c4)n3)CC2)CC1 (stereo not shown) [Compound 1178] | > 45 µM | 0.63 µM |  |
| COC(=O)N1CCC(c2noc(-c3ccccc3N3CCOCC3)n2)CC1 [Compound 1169] | 15.4 µM | > 45 µM |  |
| CC(C)N1C(=O)Cc2ccc(-c3noc(C4CCN(C(=O)c5ccccc5Cl)CC4)n3)cc21 [Compound 612] |  |  | IC50 (SCD1; [3]): > 45 µM; IC50 (SCD5; [4]): 2.38 µM |
| Cn1ccc(-c2cc(-c3nc(C4CCN(C(=O)OC(C)(C)C)CC4)no3)ccn2)n1 [Compound 1183] | > 45 µM | > 45 µM |  |
| Cc1nnc(N2CCC(c3nc(-c4ccc5cnn(C(C)C)c5c4)no3)CC2)o1 [Compound 704] |  |  | IC50 (SCD1; [3]): > 45 µM; IC50 (SCD5; [4]): 1.68 µM |
| CC(C)(C)OC(=O)N1CCN(c2noc(-c3ccc4c(c3)C3(CCC3)OC4)n2)CC1 [Compound 831] | > 45 µM | 1.2 µM |  |
| CC(C)(C)OC(=O)N1CCN(c2nnc(-c3ccc4cnn(C5COC5)c4c3)o2)CC1 [Compound 976] | > 45 µM | 5.33 µM |  |
| O=C(c1ccccc1)N1CCC(c2noc(-c3ccc4cnn(C5COC5)c4c3)n2)CC1 [Compound 685] |  |  | IC50 (SCD1; [3]): > 45 µM; IC50 (SCD5; [4]): 0.184 µM |
| CC(C)(C)OC(=O)N1CCC(c2noc(-c3cccc(C4CCO4)c3)n2)CC1 (stereo not shown) [Compound 1152] | > 45 µM | 0.01 µM |  |
| O=C(C1CC2(CC2)C1)N1CCC(c2noc(-c3ccc4oc(=O)n(C5COC5)c4c3)n2)CC1 [Compound 1021] | > 45 µM | 0.223 µM |  |
| COC(=O)N1CCC(c2nc(-c3cccc(C4CCOC4)c3)no2)CC1 (stereo not shown) [Compound 819] | > 45 µM | 3.72 µM |  |
| COC(=O)N1CCC(c2noc(-c3ccnc(N4CCOCC4)c3)n2)CC1 [Compound 1106] | > 45 µM | 2.96 µM |  |
| CC(C)n1ncc2ccc(-c3nc(C4CCN(C(=O)OC5(C)CC5)CC4)no3)cc21 [Compound 628] |  |  | IC50 (SCD1; [3]): > 45 µM; IC50 (SCD5; [4]): 0.01 µM |
| CCC(=O)N1CCC(c2noc(-c3cccc(N4CCOCC4)c3F)n2)CC1 [Compound 1159] | > 45 µM | > 45 µM |  |
| CC(C)(C)CC(=O)N1CCC(c2nc(-c3cccc(C4CCOC4)c3)no2)CC1 (stereo not shown) [Compound 782] | > 45 µM | 0.149 µM |  |
| COC(=O)N1CCC(c2noc(-c3ccc4c(C)nn(C)c4c3)n2)CC1 [Compound 921] | > 45 µM | 3.4 µM |  |
| CC(C)(C)OC(=O)N1CCC(c2nc(-c3ccccc3)no2)CC1 [Compound 808] | > 45 µM | 5.82 µM |  |
| COC(=O)N1CCC(c2noc(-c3ccc4cnn(C5COC5)c4c3)n2)CC1 [Compound 676] |  |  | IC50 (SCD1; [3]): > 45 µM; IC50 (SCD5; [4]): 0.013 µM |

| Compound | IC50 (SCD1; humanized yeast strain, 40 h) | IC50 (SCD5; humanized yeast strain, 40 h) | other results |
| --- | --- | --- | --- |
| CC(C)OC(=O)N1CCC(c2nc(-c3ccc4cnn(C(C)C)c4c3)no2)CC1 [Compound 357] |  |  | SCD1 % Max Inhibition (SCD1; [1]): 64.32%; IC50 (SCD5; [2]): > 45 µM; SCD5 % Max Inhibition (SCD5; [2]): 2.31% |
| CC(C)n1ncc2ccc(-c3nc(N4CCn5c(Cl)cnc5C4)no3)cc21 [Compound 828] | > 45 µM | 0.067 µM |  |
| CC(C)(C)OC(=O)N1CCC(c2nc(-c3ccnc(C4CCOC4)c3)no2)CC1 (stereo not shown) [Compound 992] | > 45 µM | 0.081 µM |  |
| CC(C)(C)CC(=O)N1CCC(c2nc(-c3ccc4cnn(C(=O)C5CCO5)c4c3)no2)CC1 (stereo not shown) [Compound 727] |  |  | IC50 (SCD1; [3]): > 45 µM; IC50 (SCD5; [4]): > 45 µM |
| O=C(C1CCC1)N1CCC(c2noc(-c3ccc4cnn(C5COC5)c4c3)n2)CC1 [Compound 880] | > 45 µM | 0.01 µM |  |
| COC(=O)N1CCC(c2nc(-c3ccnc(Cl)c3)no2)CC1 [Compound 734] |  |  | IC50 (SCD1; [3]): > 45 µM; IC50 (SCD5; [4]): > 45 µM |
| CC(C)n1ncc2ccc(-c3nc(C4CN(C(=O)CC(C)(C)C)C4)no3)cc21 [Compound 606] |  |  | IC50 (SCD1; [3]): > 45 µM; IC50 (SCD5; [4]): 0.737 µM |
| CC(C)(C)OC(=O)N1CCC(c2nc(-c3ccc4cnc(C5COC5)n4c3)no2)CC1 [Compound 811] | > 45 µM | 0.679 µM |  |
| CC(C)(C)OC(=O)N1CC(c2nc(-c3ccc4cnn(C5COC5)c4c3)no2)C1 [Compound 700] |  |  | IC50 (SCD1; [3]): > 45 µM; IC50 (SCD5; [4]): 0.703 µM |
| O=C(C1CC1)N1CCC(c2noc(-c3ccc4cnn(C5COC5)c4c3)n2)CC1 [Compound 887] | > 45 µM | 0.01 µM |  |
| CCC(=O)N1CCC(c2noc(-c3ccc(F)c(N4CCOCC4)c3)n2)CC1 [Compound 1164] | > 45 µM | 0.54 µM |  |
| CC(C)n1ncc2ccc(-c3nc(C4CN(C(=O)OC(C)(C)C)C4)no3)cc21 [Compound 605] |  |  | IC50 (SCD1; [1]): 31.8 µM; IC50 (SCD5; [2]): 0.513 µM |
| O=C(N1CCC(c2noc(-c3ccnc(C4CCOC4)c3)n2)CC1)C1(F)CCC1 (stereo not shown) [Compound 1097] | > 45 µM | 0.02 µM |  |
| CC(C)(C)OC(=O)N1C[C@@H]2[C@H](C1)[C@H]2C(=O)NCc1ccc2[nH]ncc2c1 [Compound 794] | > 45 µM | > 45 µM |  |
| CC(C)n1ncc2ccc(-c3nc(N4CCN(C(=O)c5ncccc5F)CC4)no3)cc21 [Compound 845] | > 45 µM | 0.637 µM |  |
| CC1(OC(=O)N2CCN(c3nc(-c4ccc5cnn(C6COC6)c5c4)no3)CC2)CC1 [Compound 620] |  |  | IC50 (SCD1; [3]): > 45 µM; IC50 (SCD5; [4]): 0.013 µM |
| O=C(N1CCC(c2noc(-c3ccc4cnn(C5COC5)c4c3)n2)CC1)C12CC(C1)C2 [Compound 890] | 22.7 µM | 0.01 µM |  |
| COC(=O)N1CCC(c2cc(-c3cc4c(cn3)cnn4C(C)C)no2)CC1 [Compound 1088] | > 45 µM | 2.52 µM |  |
| CC(C)(C)OC(=O)N1CCC(c2nc(-c3ccc4cnn(C5(C)COC5)c4c3)no2)CC1 [Compound 753] | > 45 µM | 0.585 µM |  |

| Compound | IC50 (SCD1; humanized yeast strain, 40 h) | IC50 (SCD5; humanized yeast strain, 40 h) | other results |
| --- | --- | --- | --- |
| CCC(=O)N1CCC(c2cc(-c3cc4c(cn3)cnn4C3COC3)no2)CC1 [Compound 1147] | > 45 µM | 5.46 µM |  |
| C[C@@H]1C[C@H](c2noc(-c3ccc4cnn(C5COC5)c4c3)n2)CCN1C(=O)OC(C)(C)C [Compound 1017] | 17.1 µM | 0.01 µM |  |
| O=C(N1CCC(c2noc(-c3ccnc(Cl)c3)n2)CC1)C1(F)CC1 [Compound 1122] | > 45 µM | 13.2 µM |  |
| Clc1cnc2n1CCN(c1noc(-c3ccc4cnn(C5CCC5)c4c3)n1)C2 [Compound 905] | > 45 µM | > 45 µM |  |
| CC(C)(C)OC(=O)N1CCC(c2noc(-c3ccc(OC4COC4)c(NC4COC4)c3)n2)CC1 [Compound 1006] | > 45 µM | 0.637 µM |  |
| COC(=O)N1CCC(c2noc(-c3cnc4cnn(C5COC5)c4c3)n2)CC1 [Compound 1052] | > 45 µM | 0.253 µM |  |
| CC(=O)N1CC(n2ncc3ccc(-c4nc(C5CCN(C(=O)OC(C)(C)C)CC5)no4)cc32)C1 [Compound 861] | 15 µM | 0.01 µM |  |
| COC(=O)N1CCC(c2nc(-c3ccc4c(c3)N(C(C)C)C(=O)C4)no2)CC1 [Compound 627] |  |  | IC50 (SCD1; [3]): > 45 µM; IC50 (SCD5; [4]): 6.69 µM |
| CC(C)(C)CC(=O)N1CCN(c2nc(-c3ccc4cnn(C5COC5)c4c3)no2)CC1 [Compound 619] |  |  | IC50 (SCD1; [3]): > 45 µM; IC50 (SCD5; [4]): 0.291 µM |
| CC(C)n1ncc2ccc(-c3noc(C4CCN(C(=O)C5(O)CC5)CC4)n3)cc21 [Compound 779] | > 45 µM | 15.3 µM |  |
| CC1(CC(=O)N2CCN(c3nc(-c4ccc5cnn(C6COC6)c5c4)no3)CC2)CC1 [Compound 693] |  |  | IC50 (SCD1; [3]): > 45 µM; IC50 (SCD5; [4]): 1.67 µM |
| CC(=O)N1CC(n2ncc3ccc(-c4noc(C5CCN(C(=O)OC(C)(C)C)CC5)n4)cc32)C1 [Compound 710] |  |  | IC50 (SCD1; [3]): > 45 µM; IC50 (SCD5; [4]): 0.05 µM |
| CCC(=O)N1CCN(c2noc(-c3ccnc(NC4COC4)c3)n2)CC1 [Compound 978] | > 45 µM | > 45 µM |  |
| CC(C)(C)OC(=O)N1CCC(c2nc(-c3cccc(OC4COC4)c3)no2)CC1 [Compound 672] |  |  | IC50 (SCD1; [3]): > 45 µM; IC50 (SCD5; [4]): 0.441 µM |
| CC(C)C(=O)N1CCC(c2noc(-c3ccc4cnn(C5CCOC5)c4c3)n2)CC1 (stereo not shown) [Compound 1024] | > 45 µM | 0.01 µM |  |
| CC(C)(C)OC(=O)N1CCC(c2noc(-c3ccnc(C4CCCO4)c3)n2)CC1 (stereo not shown) [Compound 1003] | > 45 µM | 0.457 µM |  |
| CC(C)n1ncc2ccc(-c3noc(N4CCN(C(=O)OC5CC5)CC4)n3)cc21 [Compound 689] |  |  | IC50 (SCD1; [3]): > 45 µM; IC50 (SCD5; [4]): 0.657 µM |
| Cn1ncc2ccc(-c3noc(C4CCNCC4)n3)cc21 [Compound 500] |  |  | IC50 (SCD1; [1]): > 45 µM; IC50 (SCD5; [2]): > 45 µM |
| COC(=O)N1CCC(c2nc(-c3ccc4cnn([C@H]5CCOC5)c4c3)no2)CC1 [Compound 906] | > 45 µM | 0.89 µM |  |
